For one assay, the system named is NCI/ADR cells. The assay is described as follows: SRB assay, inhibition of proliferation, multidrug resistant line. It counts as cell-based, human. The text has this: The SK-OV-3 cell line was derived from ovarian carcinoma, the MDA-MB-435 and NCI/ADR from breast adenocarcinoma, PC3 and DU 145 from prostate carcinoma and HeLa from cervical carcinoma. The SK-OV-3, HeLa, PC3, and DU 145 and cell lines were obtained from the American Type Culture Collection, 10801 University Blvd., Manassas, Va. 20110-2209. The MDA-MB-435 cell line was obtained from the Lombardi Cancer Center of Georgetown University School of Medicine and the NCI/ADR cell line was obtained from the National Cancer Institute, Fairview Center, Suite 204, 1003 West 7th Street, Frederick, Md. 21701-8531.
(§1) Cells were plated into 96 well plates and allowed to grow and attach for 18-24 hours and then the drugs or vehicle controls were added to the wells. Each data point represents the mean of three experiments, each of which consisted of three replicates within an experiment. The cells were incubated with the drugs for 48 hours and then the cellular protein was fixed and quantified using the sulforhodamine B (SRB) assay. The absorbance of the dye is linear with respect to both cell protein and cell number (Skehan, P.; Storeng, R.; Scudiero, D., Monks; A., McMahon, J.; Vistica, D., Warren, J. T.; Bokesch, H., Kenney, S.; and Boyd, M. R., “New colorimetric cytotoxicity assay for anticancer-drug screening”, J. Natl. Cancer Inst, 82, 1107-1112 (1990)). The effects of the drugs were compared to vehicle controls and the data plotted as percent of control vs. log of drug concentration.
(§2) The IC50 is defined as the drug concentration required to inhibit cell proliferation 50% and is calculated from the linear portion of the log concentration response curve.
(§3) The IC50 values for inhibition of proliferation were calculated from the log dose response curve (n=3, mean±SD).
The effects of the analogs on a multi-drug resistant cell line were also studied. The NCI/ADR cell line is resistant to many chemotherapeutic agents by virtue of its high expression of the drug efflux pump P-glycoprotein. The NCI/ADR cell line was obtained from the National Cancer Institute, Fairview Center, Suite 204, 1003 West 7th Street, Frederick, Md. 21701-8531.
The IC50 values for inhibition of proliferation were calculated from the dose-response curves. The values represent the mean of 3 experiments ±SD. Resistance factors were calculated by dividing the IC50 of the resistant cell line, NCI/ADR, by the IC50 in a drug sensitive cell line, MDA-MB-435.
A general note: In SRB staining, fixed cells bind dye roughly in proportion to their protein.

The test system of assay [1] is Human Umbilical Vein Endothelial Cells (HUVEC). The assay is described as follows: HUVEC proliferation (SRB assay). It counts as cell-based. The text has this: FIG. 2 illustrates the effects of compounds on Human Umbilical Vein Endothelial Cells (HUVEC) proliferation. The SRB assay was used to construct the dose response curves of the agents in HUVEC cells. n=3±SD;
Two in vitro assays were used to detect the potential for antiangiogenic activity of the analogs. One assay tested the ability of the analogs to inhibit the cellular proliferation of endothelial cells as shown below (Table 4). The ability of the analogs to inhibit the proliferation of endothelial cells was tested and compared to the effects of 2-ME2. Drugs that have antiangiogenic activity inhibit the proliferation of endothelial cells.

Assay [2] concerns MDA-MB-435 breast cancer xenograft. Description: MDA-MB-435 breast cancer xenograft model. It counts as in vivo, mice. As for the experimental part: FIG. 4 illustrates the effects of compounds in an MDA-MB-435 breast cancer xenograft model. The data are the means of the groups ±SEM. Statistical significance (P<0.05) is indicated by an asterisk;
The analogs were tested for antitumor activity using an MDA-MB-435 breast cancer xenograft model. Tumor fragments of MDA-MB-435 (30 mg) were implanted subcutaneously into female athymic NCr-nu mice (SWF-1) weighing approximately 24 g. The tumor fragments were harvested from nude mice hosts. Animal weight and tumor dimensions were measured twice weekly with calipers and tumor weights estimated using 2-dimensional measurements of length and width and the formula [1×(w)^2]/2. When the tumors reached an approximate size equivalent to 175 mg (13 days after implantation) the mice were randomized to treatment or control groups and treatments were begun. The compounds were administered intraperitoneally daily for 30 days on the basis of individual animal body weights. Treatment groups contained 10 mice and the vehicle treated control group consisted of 20 mice. The mean tumor burdens were plotted for each treatment group and compared to controls. The means of the tumor burden data were analyzed for differences using a one-sided Student's t-test, with a P<0.05 considered to be significant difference. Tumor growth delay, the difference between the time for the median of each group (treatment and control) to reach a tumor burden of 1500 mg was calculated.

The subject of another assay is 6 human tumor cell lines. The assay is described as follows: SRB antiproliferative assay, panel of tumor cell lines. It counts as cell-based. The settings on record: in words; 15-dehydro-2-ME2: MDA-MB-435, NCI/ADR, PC3, HeLa and SK-OV-3. The procedure:
(§4) The 4 analogs of 2-ME2 set forth in Table 1 were tested for antiproliferative activity against 6 human tumor cell lines. The SK-OV-3 cell line was derived from ovarian carcinoma, the MDA-MB-435 and NCI/ADR from breast adenocarcinoma, PC3 and DU 145 from prostate carcinoma and HeLa from cervical carcinoma. The SK-OV-3, HeLa, PC3, and DU 145 and cell lines were obtained from the American Type Culture Collection, 10801 University Blvd., Manassas, Va. 20110-2209. The MDA-MB-435 cell line was obtained from the Lombardi Cancer Center of Georgetown University School of Medicine and the NCI/ADR cell line was obtained from the National Cancer Institute, Fairview Center, Suite 204, 1003 West 7th Street, Frederick, Md. 21701-8531.
as §1, §2

Another assay deals with DU 145 cells. The assay is described as follows: SRB assay, inhibition of proliferation. It counts as cell-based, human. The settings on record: Homo sapiens; DU 145, 48 hours, n=3 mean±SD. As for the experimental part:
as §4, §1, §2, §3

A further assay deals with MDA-MB-435 cells. Description: SRB assay, inhibition of proliferation. The settings on record: Homo sapiens; MDA-MB-435, 48 hours, n=3 mean±SD. It counts as cell-based, human. The procedure:
as §4, §1, §2, §3

Another assay relates to HeLa cells. Description: SRB assay, inhibition of proliferation. The settings on record: Homo sapiens, 48 hours, n=3 mean±SD. It counts as cell-based. As for the experimental part:
as §4, §1, §2, §3

For a further assay, the system named is SK-OV-3 cells. The assay is described as follows: SRB assay, inhibition of proliferation. It counts as cell-based. The settings on record: Homo sapiens; SK-OV-3, 48 hours, n=3 mean±SD. As for the experimental part: as §4, §1, §2, §3
The test system of a further assay is PC3 cells. Description: SRB assay, inhibition of proliferation. It counts as cell-based. The settings on record: Homo sapiens, PC-3; PC3, 48 hours, n=3 mean±SD. The procedure: as §4, §1, §2, §3
Assay [3] concerns Human Umbilical Vein Endothelial Cells (HUVEC). Description: HUVEC invasion, Matrigel invasion chambers. It counts as cell-based. An excerpt: FIG. 3 illustrates the effects of compounds on Human Umbilical Vein Endothelial Cells (HUVEC) cell invasion. Becton-Dickinson (BD) Biocoat® Matrigel® invasion chambers were used to construct dose response curves of the compounds for invasion of HUVECs. n=3±SD;
A second assay was also used to evaluate the analogs for potential antiangiogenic activity. The complex process of endothelial cell invasion and migration are key events during angiogenesis. The ability of compounds to inhibit the invasion and migration of endothelial cells through a biological membrane matrix was evaluated. Specifically, the ability of the 2-ME2 analogs, 15-dehydro-2-ME2, 14-dehydro-2-ME2 and 2-ME2-15α,16α to inhibit the invasion and migration of human umbilical vein endothelial cells (HUVEC) through Matrigel® basement membrane material and a PET membrane with 8 μm pores was evaluated. HUVECs were obtained from BioWhittaker and were used during passages of 2 to 6. BD Biocoat® Matrigel® invasion chambers were used for the assays. These modified Boyden chambers have a PET membrane with 8 μm pores that have been coated with Matrigel®. The membrane separates the upper chamber from the lower chamber. HUVECs were plated into the top chamber in media containing 0.1% bovine serum albumin with either a test compound or vehicle and allowed to invade and migrate through pores for 24 hours. The media in the lower chamber contained the chemoattractant, 10% fetal bovine, serum. Following the incubation period the cells on the top of the membrane were removed with a cotton swab and the cells that had migrated through the pores to the lower surface of the membrane were stained with hematoxylin and eosin and counted microscopically. Experiments were conducted in duplicate and the numbers of cells that migrated were counted in 10 microscope fields per transwell chamber. The data are expressed as percent of vehicle control invasion. Dose response curves were generated and are shown in FIG. 3 and the IC50s for inhibition of HUVEC invasion were determined and are presented above in Table 4. All of the 2-ME2 analogs inhibited HUVEC invasion.

The results in this text go back to patent publication US6852710B2, “2-alkoxyestradiol analogs with antiproliferative and antimitotic activity” (Southwest Foundation for Biomedical Research, priority 2001, dated 2005).

As usually defined, the IC50 is the concentration at which inhibition is half-maximal.

`COc1cc2c(cc1O)CCC1C2CC[C@@]2(C)C1[C@H]1OC(C)(C)O[C@H]1[C@@H]2O` (stereo partly drawn) [2-ME2-15α, 16α, 2-Methoxy-3,15α,16α,17β-tetrahydroxyestra-1,3,5(10)-triene 15,16-acetonide]: the half-maximal inhibitory concentration (IC50) worked out at 4.21 ± 0.6 µM in the assay on NCI/ADR cells (Homo sapiens, NCI/ADR-RES, NCI/ADR multidrug resistant, 48 hours, n=3 mean±SD); 11.9 ± 2.17 µM in assay [1] (Homo sapiens, HUVEC, SRB assay); 6.78 ± 0.62 µM in the assay with DU 145 cells; 3.24 ± 0.35 µM in the assay on MDA-MB-435 cells; 2.98 ± 0.24 µM in the assay with HeLa cells; 5.16 ± 0.99 µM in the assay on SK-OV-3 cells. The 50% inhibitory concentration (IC50) with PC3 cells was 5.13 ± 1.53 µM; in assay [3] (Homo sapiens, HUVEC, Matrigel, 24 hours), 16 ± 1.98 µM. The same compound returned an NCI-ADR/MDA-MB-435 resistance factor in the assay with NCI/ADR cells (IC50 in NCI/ADR divided by IC50 in MDA-MB-435) of 1.30. In addition, the “potency relative to 2-ME2, HUVEC proliferation” value in assay [1] (HUVEC proliferation, in words) was “less potent”. Besides, the tumor growth delay in [2] (intraperitoneally daily for 30 days, time for median to reach tumor burden of 1500 mg vs control) is 11.3 days. Also, in assay [2] (tumor burden versus time), the “antitumor effect compared with 2-ME2” value is given as “superior to 2-ME2”. Further, the “potency compared with 2-ME2, tumor cell lines” value with 6 human tumor cell lines is “generally less potent than 2-ME2”. Besides, the “potency relative to 2-ME2 in inhibiting HUVEC invasion” value in assay [3] (HUVEC invasion) is “less potent”.
